Measured values taken from US10336702B2, “Pharmaceutically active compounds” (BERGENBIO ASA, priority 2015, dated 2019).

Key:
[1] = test system: hepatic stellate cell line LX2; test: α-sma protein and mRNA levels in activated hepatic stellate cells; assay type: cell-based, human
Description: LX2 cells were treated for 72 hours with the indicated dosages of EX33 (μM). Cell lysates were analyzed by immune blotting for alpha-smooth muscle actin (α-SMA), PCNA and total p-Akt. Actin was used as a loading control.
LX2 cells were treated for 24 hours with the indicated dosages of EX33 (μM). mRNA was isolated and analyzed by RT-PCR for α-SMA expression. Expression level in Vehicle treated cells (0 EX33) was set to 1, and α-sma expression levels following treatment with indicated dosages of EX33 calculated relative to that.
Liver fibrosis is characterized by accumulation of extracellular matrix components such as alpha-smooth muscle actin (α-sma) mainly derived from activated hepatic stellate cells (HSCs).
The role of AKT3 in liver fibrosis was analyzed by studying the efficacy of EX33 to block HSC activation. The human activated hepatic stellate cell line LX2 was treated with different dosages of EX33 and the effects on α-sma protein and mRNA levels were analysed by immune blotting (see FIG. 9) and RT-PCR (see FIG. 10) respectively.

NSCLC cell line H2086 = test: EMT induction (Vimentin immune blotting) with TGF-β under hypoxia; assay type: cell-based; details: H2086 cells, 20 ng/ml TGF-β, 1% O2, 5 days, 1 μM compound
Description: EMT induction was evaluated by quantification of the EMT marker Vimentin. NSCLC H2086 cells were treated with 20 ng/ml TGF-β under hypoxic conditions (1% O2) for 5 days. The effect on Vimentin was evaluated by immune blotting for cells treated with Vehicle (DMSO), 1 μM EX33 or 1 μM EX34, and the results are shown in FIG. 7. Glyceraldehyde-3-phosphate dehydrogenase (GAPDH) was used as loading control. The band intensity of Vimentin has been related to the intensity of the GAPDH band.
NSCLC H2086 cells were treated with 20 ng/ml TGF-β under hypoxic conditions (1% O2) for 5 days to induce EMT. The ability of EX33 and EX34 to prevent EMT was evaluated by quantification of the EMT marker Vimentin. The effect on Vimentin was evaluated by immune blotting for cells treated with Vehicle (DMSO), 1 μM EX33 or 1 μM EX34. GAPDH was used as loading control. The band intensity of Vimentin has been related to the intensity of the GAPDH band.

Akt3 in MDA-MB-231 cells = test: Cellular (nuclear) localization of Akt3 by immune fluorescence microscopy; assay type: cell-based; details: 2 μM, 36 hours
Description: FIGS. 4 and 5 refer to the cellular localization of Akt3 in MDA-MB-231 cells that were treated for 36 hours with EX33 or EX34. In FIG. 4, cells were stained to visualize the nucleus (top left panel) and Akt3 (top right panel) and analyzed using immune fluorescence microscopy. […] The results were obtained using TissueQuest Software.
The cellular program of epithelial to mesenchymal transition (EMT) is utilized by tumour cells to develop drug resistance and to metastasize. Nuclear translocation of Akt3 is considered crucial for Akt3's ability to phosphorylate SNAIL and induce EMT.
MDA-MB-231 cells were treated for 36 hours with Vehicle (DMSO) or 2 μM EX34. Cells were stained to visualize the nucleus and Akt3. […] Mean intensity of Akt3 in the nucleus was evaluated after treatment with DMSO (control) or EX33 using TissueQuest Software (see FIG. 5).

HMLER-Akt3 cells = test: HMLER-Akt3 tumour seeding xenograft model; assay type: in vivo, NSG mice; details: for tumour initiation: 100 mg/kg once a day from day of implantation; for Tumour incidence (tumours formed/total number of implantations): 100 mg/kg once a day, after 2 weeks, tumours exceeding 20 mm^3
Description: HMLER cells are not very tumourigenic. However, after enforced expression of Akt3, these cells are able to initiate tumours.
Mice implanted with 10^5 or 10^6 HMLER-Akt3 cells were treated with vehicle, EX34 or EX33 at 100 mg/kg once a day. Treatment was initiated on the day of tumour cell implantation. A total of 10 tumours were implanted for each treatment condition. Tumour incidence was evaluated after 2 weeks and tumour size cut of was set at 20 mm^3. Significance determined by unpaired Student two-tailed t test.
The numbers are given as tumours formed/total number of implantations. Significance was determined by unpaired two-tailed Student t-test. Ns: not significant.

[2] = test system: MDA-MB-231-D3H2LN/GPF-Luc cells; test: Invasive 3D tumour cell growth in matrigel; assay type: cell-based; details: 2 μM, 72 hours, fluorescence microscopy
Description: The TNBC aggressive cell line MDA-MB-231-D3H2LN/GPF-Luc was seeded in matrigel on cover slides to obtain invasive 3D tumour cell colonies. Cell cultures were treated for 72 hours with DMSO (control), 2 μM EX34 or 2 μM EX33, and colonies were evaluated by fluorescence microscopy for 3D invasive growth.

[3] = test system: MBBR3A human melanoma cancer cell line; test: MBBR3A human melanoma sub-cutaneous xenograft model; assay type: in vivo, Nude mice; details: 50 mg/kg b.i.d. oral gavage, 5-days on 2-days off, 15 days
Description: Tumour volumes of mice treated with vehicle or EX33 (50 mg/kg b.i.d.) were measured by caliper twice a week, over the course of 15 days. Data is given as Mean±SEM, n=10-12. Statistical analysis was performed by an unpaired two-tailed Student t test.
Nude mice were injected subcutaneously with MBBR3A cells, and the effect on tumour growth of EX33 was evaluated. EX33 was administered at 50 mg/kg EX33 given by oral gavage twice a day in a 5-days on and 2-days off cycle. Tumour growth was monitored by caliper measurements twice a week.
Data are given as Mean±SEM, n=10-12. Statistical analysis was performed by unpaired two-tailed Student t test.

MDA-MB-468 cells = test: TNBC MDA-MB-468 subcutaneous xenograft model; assay type: in vivo, NSG mice; details: 50 mg/kg b.i.d. oral gavage, 5-days on 2-days off, 19 days
Description: Tumour volumes of mice treated with vehicle or EX33 (50 mg/kg b.i.d.) were measured by caliper twice a week, over the course of 19 days. Data is given as Mean±SEM, n=6-10. Statistical analysis was performed by an unpaired two-tailed Student t test.
The MDA-MB-468 model has previously been reported in the literature to be dependent upon Akt3 for xenograft tumour growth (Chin et al., Cancer Res 2014).
NSG mice were injected subcutaneously with MDA-MB-468 cells, and the effect on tumour growth of EX33 was evaluated. EX33 was administered at 50 mg/kg, and was given by oral gavage twice a day in a 5-days on and 2-days off cycle. Tumour growth was monitored by caliper measurements twice a week.
Data are given as Mean±SEM, n=6-10. Statistical analysis was performed by unpaired two-tailed Student t test.

[4] = test system: pAkt1, pAkt2 and pAkt3 in MCF10DCIS xenograft tumours; test: Akt phosphorylation in MCF10DCIS xenograft tumours (SureFire); assay type: in vivo, mice; details: 25 mg/kg oral gavage once a day for 2, 4 or 6 days; pAkt1, pAkt2, pAkt3 measured
Description: Mice carrying MCF10DCIS xenograft tumours were treated with Vehicle or EX33 at 25 mg/kg once a day for 2, 4 or 6 days. Tumours were harvested and analyzed by SureFire assay for levels of pAkt1, pAkt2 and pAkt3. Average±SEM are shown, n=4.
Nude mice were injected subcutaneously with MCF10DCIS cells. When the average tumour size reached 440 mm^3, EX33 was administered at 25 mg/kg for 2, 4 or 6 days. EX33 was given by oral gavage once a day. Tumours were harvested and analyzed by SureFire assay for levels of pAkt1, pAkt2 and pAkt3. Average±SEM are shown, n=4.

[5] = test system: TNBC cell line MDA-MB-231; test: 3D tumour cell growth in matrigel; assay type: cell-based; details: MDA-MB-231 in matrigel, increasing concentrations, 9 days, DMSO control
Description: MDA-MD-231 cells were treated with increasing concentrations of EX34 or EX33 for 9 days. Treatment was initiated one day after tumour cell seeding. DMSO was used as control. The graphs in FIG. 2 show average tumour size±SEM following treatment with each of EX34 and EX33. Images of the 3D cultures were batch analysed with AMIDA software.
In order to evaluate the role of Akt3 in tumour cell growth and invasion, the effect of two compounds of the invention, the compound of Example 34 (denoted hereafter as EX34) and the compound of Example 33 (denoted hereafter as EX33), on 3D growth in matrigel was assessed.
The TNBC cell line MDA-MB-231 was seeded in matrigel and the cell cultures were treated with increasing concentrations of EX34 or EX33 for 9 days. Treatment was initiated one day after tumour cell seeding. DMSO was used as control. The average tumour sphere size was then evaluated for each treatment. Representative pictures are shown in FIG. 1 for each of the indicated treatment conditions.
Images of the 3D cultures were batch analysed with AMIDA software to quantify the 3D tumour sphere size.

NSCLC cell line H2073 = test: Cell viability with paclitaxel (resazurin reduction) in paclitaxel-resistant cells; assay type: cell-based; details: paclitaxel with or without compound, 72 hours
Description: Cell viability was evaluated using resazurin reduction. Average±SEM are shown, n=3.
The NSCLC cell line H2073 was established from a patient that was resistant to treatment with paclitaxel.
H2073 cells were treated with increasing dosages of paclitaxel in the absence or presence of EX34 for 72 hours, and cell viability was evaluated using resazurin reduction. Average±SEM are shown, n=3.

[6] = 10^5 HMLER-Akt3 cells implanted
[7] = 10^6 HMLER-Akt3 cells implanted

| SMILES | α-sma mRNA level ([1]; 24 hours, RT-PCR) | α-sma protein level ([1]; 72 hours, immune blotting) | EMT induction (EMT marker Vimentin) (NSCLC cell line H2086) | nuclear localization of Akt3 (Akt3 in MDA-MB-231 cells) | tumour initiation (HMLER-Akt3 cells) | Tumour incidence (tumours formed/total number of implantations) (HMLER-Akt3 cells; [6]) | Tumour incidence (tumours formed/total number of implantations) (HMLER-Akt3 cells; [7]) | invasive 3D tumour cell growth [2] | primary tumour growth (tumour volume) [3] | primary tumour growth (tumour volume) (MDA-MB-468 cells) | level of Akt3 phosphorylation in xenograft tumours [4] | 3D tumour cell growth (average tumour sphere size) [5] | sensitivity to paclitaxel (cell viability) (NSCLC cell line H2073) |
| --- | --- | --- | --- | --- | --- | --- | --- | --- | --- | --- | --- | --- | --- |
| CC(=O)N(C)[C@H]1CC[C@H](CC(=O)Nc2cc(-c3ccccc3)c(-c3ccc(C4(N)CCC4)cc3)cn2)CC1 [EX33] | decreases the levels of α-sma mRNA and protein | decreases the levels of α-sma mRNA and protein | prevent EMT induction | Akt3 stains cytoplasmic | prevented tumour initiation | 0/10^<0.0001 | 0/10^<0.0001 | inhibited tumour cell growth | reduced tumour growth compared to vehicle treated mice | reduced tumour growth compared to vehicle treated mice | selectively reduced the level of Akt3 phosphorylation | dose-dependent inhibition of 3D tumour cell growth | – |
| COC(=O)N(C)[C@H]1CC[C@H](CC(=O)Nc2cnc(-c3ccc(C(C)(C)N)cc3)c(-c3ccccc3)c2)CC1 [EX34] | – | – | prevent EMT induction | prevents nuclear localization of Akt3 | prevented tumour initiation | 3/10^ns | 0/10^0.0002 | inhibited tumour cell growth | – | – | – | dose-dependent inhibition of 3D tumour cell growth | sensitizes the paclitaxel resistant cell line H2073 to paclitaxel |
